Experimental data: patent publication US4324788A, “Alkoxyalkylidenhydrazinopridazines and process for their preparation” (I.S.F. S.p.A., priority 1979, dated 1982)
Structures can show the parent of a compound that is named as a salt. Where two headings read alike, the source gives them in different places.

What was measured:
[1] = tested on: genetically hypertensive rats; test: Arterial pressure and heart rate per os in genetically hypertensive rats (SHR); type: in vivo, rat (genetically hypertensive; conditions: for HR DE25 (ED25, dose giving an increase of the heart rate of 25%): > = no increase of the heart rate at the maximal tested dose; for ED25: po, read-out: BP DE25 (ED25, dose giving a drop of the blood pressure of 25%)
Source text: activity on the arterial pressure and on the heart rate has been studied per os in genetically hypertensive rats according to the method described in Pharm. Research Comm.

in vivo = conditions: mouse, ip
[2] = tested on: guinea-pig isolated atria; conditions: isoprenaline agonist, product at 10^-4 M
strips of rabbit aorta = test: Spasmolytic activity in vitro on strips of rabbit aorta with potassium chloride induced spasm; type: cell-based; conditions: Oryctolagus cuniculus, spasm with 30 mM potassium chloride, read-out: EC50 (relaxing 50% the strip of rabbit aorta)
Protocol: spasmolytic activity is determined evaluating the direct relaxant effect on the vasal smooth muscle in vitro on strips of rabbit aorta in which spasm was induced by potassium chloride according to the method described in Journ. of Pharm. and Exper. […] The products were added at sequentially cumulative molar doses and their activity indicated as Effective Concentration (EC50).

[3] = SHR rat, per os, at the moment of maximum effect

Compound	HR DE25 (ED25, dose giving an increase of the heart rate of 25%) ([1]; SHR rat, per os)	ED25 [1, 3]	LD50 (in vivo)	DR4 (dose ratio of agonist EC50 in the presence and in the absence of the product) [2]	EC50 (strips of rabbit aorta)	ED25 ([1]; Rattus norvegicus)
COc1ccc(CCNCC(O)COc2ccc(NN=C(C)C)nn2)cc1OC.Cl.Cl (stereo not drawn) [3-{3[2(3,4-dimethoxyphenyl)ethyl]amino-2-hydroxypropoxy}6-isopropylidenhydrazinopyridazine dihydrochloride]	> 60 mg/kg/os	39 mg/kg	300 mg/kg	531	–	–
CC(CCc1ccccc1)NCC(O)c1ccc(O)c(C(N)=O)c1 (stereo not drawn) [Labetalol, reference compound]	> 100 mg/kg/os	400 mg/kg	–	–	> 10000 µM	–
CC(C)=NNc1ccc(OCC(O)CNC(C)C)nn1.Cl.Cl (stereo not drawn) [3-(3-Isopropylamino-2-hydroxypropoxy)-6-isopropylidenhydrazinopyridazine dihydrochloride]	> 100 mg/kg/os	350 mg/kg	500 mg/kg	77	1700 µM	–
CC(C)=NNc1ccc(OCC(O)CNC(C)CCc2ccccc2)nn1.Cl.Cl (stereo not drawn) [3-[3-(4-phenyl-2-butyl)amino-2-hydroxypropoxy]6-isopropylidenhydrazinopyridazine dihydrochloride]	> 40 mg/kg/os	17 mg/kg	200 mg/kg	80	–	–
NNc1nncc2ccccc12 [Hydralazine, reference compound]	6.0 mg/kg/os	8.1 mg/kg	–	1	680 µM	–
CC(C)NCC(O)COc1cccc2ccccc12 (stereo not drawn) [Propanolol, reference compound]	> 100 mg/kg/os	–	–	–	–	> 400 mg/kg
CC(C)=NNc1ccc(OCC(O)CNC(C)(C)C)nn1 (stereo not drawn) [3-(3-t.Butylamino-2-hydroxypropoxy)-6-isopropylidenhydrazinopyridazine dihydrochloride]	> 100 mg/kg/os	50 mg/kg	500 mg/kg	78	–	–
CCC(C)NCC(O)COc1ccc(NN=C(C)C)nn1.Cl.Cl (stereo not drawn) [3-[3-(2-butyl)amino-2-hydroxypropoxy]6-isopropylidenhydrazinopyridazine dihydrochloride]	> 50 mg/kg/os	25 mg/kg	300 mg/kg	72	–	–
